# Results as given in patent US20250092039A1, “GLUTARIMIDE-CONTAINING PAN-KRAS-MUTANT DEGRADER COMPOUNDS AND USES THEREOF” (Tiger Biotherapeutics Inc., priority 2022, published 2025).
# Columns and labels:
# KRAS-G12V/RAF1 = KRAS-G12V/RAF1 (Homo sapiens (Human), UniProt P01116, G12V); test: KRAS/RAF1 binding inhibition assay (AlphaScreen)
# How it was run: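 Binding of GppNHp-loaded KRAS G12V to the RAF1 RBD was measured by AlphaScreen with test compound present in 2% DMSO (final), 60 min incubation at 4° C. Signals were converted to % inhibition versus DMSO, and IC50 was obtained by variable-slope nonlinear regression.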
# KRAS G12V = KRAS G12V (Homo sapiens (Human), UniProt P01116, G12V); test: KRAS G12V degradation in SW620 cells (Western blot, DC50); assay type: cell-based; conditions: 24 hours
# KRAS G12V, sequence (P01116-2 other isoform, or with tags, fused parts or gaps G12V): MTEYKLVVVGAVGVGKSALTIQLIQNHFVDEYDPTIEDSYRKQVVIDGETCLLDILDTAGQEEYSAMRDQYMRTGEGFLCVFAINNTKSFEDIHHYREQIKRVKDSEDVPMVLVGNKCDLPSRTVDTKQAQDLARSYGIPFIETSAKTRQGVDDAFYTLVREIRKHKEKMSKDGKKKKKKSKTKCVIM
# How it was run: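 SW620 cells (homozygous KRAS G12V) were treated with compound for 24 hours at 37° C. KRAS in lysates was measured by Western blot with fluorescent secondary antibodies and expressed relative to DMSO vehicle (100%). DC50 came from a four-parameter variable-slope dose-response fit.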
# SW620 cells = test: 3D cell growth inhibition of SW620 cells carrying endogenous KRAS G12V mutation (CellTiter-Glo 3D, GI50); assay type: cell-based; conditions: Homo sapiens, SW-620, 144 h; SW620 cells, 6 days; read-out: SW620 3D cell growth GI50
# How it was run: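 SW620 cells (endogenous KRAS G12V) grown in 3D were dosed next day with compound from DMSO stocks at various concentrations, then incubated 6 days at 37° C.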
# KRAS-G12V/RAF1, sequence (P01116-2 other isoform, or with tags, fused parts or gaps G12V): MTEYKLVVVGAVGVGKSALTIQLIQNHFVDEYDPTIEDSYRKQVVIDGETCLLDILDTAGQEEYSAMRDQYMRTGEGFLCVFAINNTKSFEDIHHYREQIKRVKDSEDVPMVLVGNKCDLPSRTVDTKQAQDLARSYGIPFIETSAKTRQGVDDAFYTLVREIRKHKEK
IC50 (KRAS-G12V/RAF1) [nM],DC50 (KRAS G12V) [nM],GI50 (SW620 cells) [nM],Structure (SMILES)
20 to 200,1 to 10,> 100,"CCc1cccc2cc(O)cc(-c3ncc4c(N5CCC[C@@](C)(O)C5)nc(OCC5(CN6CC(N7CC(N8CCN(c9ccc%10c(c9)CN([C@H]9CCC(=O)NC9=O)C%10=O)CC8)C7)C6)CC5)nc4c3F)c12 [Compound 168, (S)-3-(5-(4-(1′-((1-(((7-(8-ethyl-3-hydroxynaphthalen-1-yl)-8-fluoro-4-((R)-3-hydroxy-3-methylpiperidin-1-yl)pyrido[4,3-d]pyrimidin-2-yl)oxy)methyl)cyclopropyl)methyl)-[1,3′-biazetidin]-3-yl)piperazin-1-yl)-1-oxoisoindolin-2-yl)piperidine-2,6-dione]"
20 to 200,> 100,10 to 100,"CCc1c(F)ccc2cc(O)cc(-c3ncc4c(N5CCC[C@@](C)(O)C5)nc(OCC5(CN6CCC7(CC6)CC(F)(CN6CCN(c8ccc(C(=O)N[C@H]9CCC(=O)NC9=O)c(F)c8)CC6)C7)CC5)nc4c3F)c12 [Compound 180, N-((S)-2,6-dioxopiperidin-3-yl)-4-(4-((7-((1-(((7-(8-ethyl-7-fluoro-3-hydroxynaphthalen-1-yl)-8-fluoro-4-((R)-3-hydroxy-3-methylpiperidin-1-yl)pyrido[4,3-d]pyrimidin-2-yl)oxy)methyl)cyclopropyl)methyl)-2-fluoro-7-azaspiro[3.5]nonan-2-yl)methyl)piperazin-1-yl)-2-fluorobenzamide]"
> 200,> 100,> 100,"CCc1cccc2cc(O)cc(-c3ncc4c(N5CCNC(=O)CC5)nc(OCC5(CN6CCC7(CC6)CC(CN6CCN(c8ccc9c(c8)CN([C@H]8CCC(=O)NC8=O)C9=O)CC6)C7)CC5)nc4c3F)c12 [Compound 128, (S)-3-(5-(4-((7-((1-(((7-(8-ethyl-3-hydroxynaphthalen-1-yl)-8-fluoro-4-(5-oxo-1,4-diazepan-1-yl)pyrido[4,3-d]pyrimidin-2-yl)oxy)methyl)cyclopropyl)methyl)-7-azaspiro[3.5]nonan-2-yl)methyl)piperazin-1-yl)-1-oxoisoindolin-2-yl)piperidine-2,6-dione]"
20 to 200,< 1,< 10,"CCc1c(F)ccc2cc(O)cc(-c3ncc4c(N5CCC[C@@](C)(O)C5)nc(OCC5(CN6CCN(C7CC8(CCN(c9ccc%10c(c9)CN(C9CCC(=O)NC9=O)C%10=O)CC8)C7)CC6)CC5)nc4c3F)c12 (stereo partly drawn) [Compound 162, 3-[5-[2-[4-[[1-[[7-(8-ethyl-7-fluoro-3-hydroxy-1-naphthyl)-8-fluoro-4-[(3R)-3-hydroxy-3-methyl-1-piperidyl]pyrido[4,3-d]pyrimidin-2-yl]oxymethyl]cyclopropyl]methyl]piperazin-1-yl]-7-azaspiro[3.5]nonan-7-yl]-1-oxo-isoindolin-2-yl]piperidine-2,6-dione]"
20 to 200,< 1,< 10,"CCc1cccc2cc(O)cc(-c3ncc4c(N5CCC[C@@](C)(O)C5)nc(OCC5(CN6CCC7(CC6)CC(N6CCN(c8ccc9c(c8)CN([C@H]8CCC(=O)NC8=O)C9=O)CC6)C7)CC5)nc4c3F)c12 [Compound 138, (3S)-3-[5-[4-[7-[[1-[[7-(8-ethyl-3-hydroxy-1-naphthyl)-8-fluoro-4-[(3R)-3-hydroxy-3-methyl-1-piperidyl]pyrido[4,3-d]pyrimidin-2-yl]oxymethyl]cyclopropyl]methyl]-7-azaspiro[3.5]nonan-2-yl]piperazin-1-yl]-1-oxo-isoindolin-2-yl]piperidine-2,6-dione]"
20 to 200,< 1,< 10,"CCc1c(F)ccc2cc(O)cc(-c3ncc4c(N5CCC[C@@](C)(O)C5)nc(OCC5(CN6CC(N7CCC8(CCN(c9ccc%10c(c9)CN(C9CCC(=O)NC9=O)C%10=O)CC8)CC7)C6)CC5)nc4c3F)c12 (stereo partly drawn) [Compound 153, 3-(5-(9-(1-((1-(((7-(8-ethyl-7-fluoro-3-hydroxynaphthalen-1-yl)-8-fluoro-4-((R)-3-hydroxy-3-methylpiperidin-1-yl)pyrido[4,3-d]pyrimidin-2-yl)oxy)methyl)cyclopropyl)methyl)azetidin-3-yl)-3,9-diazaspiro[5.5]undecan-3-yl)-1-oxoisoindolin-2-yl)piperidine-2,6-dione]"

# The next lines start with the compound.
Structure (SMILES),IC50 (KRAS-G12V/RAF1) [nM],DC50 (KRAS G12V) [nM],GI50 (SW620 cells) [nM]
"CCc1c(F)ccc2cc(O)cc(-c3ncc4c(N5CCC=CCC5)nc(OCC5(CN6CCC7(CC6)CC(CN6CCN(c8ccc9c(c8)CN([C@H]8CCC(=O)NC8=O)C9=O)CC6)C7)CC5)nc4c3F)c12 [Compound 4, (S)-3-(5-(4-((7-((1-(((7-(8-ethyl-7-fluoro-3-hydroxynaphthalen-1-yl)-8-fluoro-4-(2,3,6,7-tetrahydro-1H-azepin-1-yl)pyrido[4,3-d]pyrimidin-2-yl)oxy)methyl)cyclopropyl)methyl)-7-azaspiro[3.5]nonan-2-yl)methyl)piperazin-1-yl)-1-oxoisoindolin-2-yl)piperidine-2,6-dione]",> 200,> 100,> 100
"CCc1cccc2cc(O)cc(-c3ncc4c(N5CCCOCC5)nc(OCC5(CN6CCC(CN7CCN(c8ccc9c(c8)CN([C@H]8CCC(=O)NC8=O)C9=O)CC7)CC6)CC5)nc4c3F)c12 [Compound 110, (S)-3-(5-(4-((1-((1-(((7-(8-ethyl-3-hydroxynaphthalen-1-yl)-8-fluoro-4-(1,4-oxazepan-4-yl)pyrido[4,3-d]pyrimidin-2-yl)oxy)methyl)cyclopropyl)methyl)piperidin-4-yl)methyl)piperazin-1-yl)-1-oxoisoindolin-2-yl)piperidine-2,6-dione]",> 200,> 100,> 100
"CCc1cccc2cc(O)cc(-c3ncc4c(N5CCC[C@@](C)(O)C5)nc(OCC5(CN6CC(CN7CC8(CCN(c9ccc%10c(c9)CN(C9CCC(=O)NC9=O)C%10=O)CC8)C7)C6)CC5)nc4c3F)c12 (stereo partly drawn) [Compound 17, 3-(5-(2-((1-((1-(((7-(8-ethyl-3-hydroxynaphthalen-1-yl)-8-fluoro-4-((R)-3-hydroxy-3-methylpiperidin-1-yl)pyrido[4,3-d]pyrimidin-2-yl)oxy)methyl)cyclopropyl)methyl)azetidin-3-yl)methyl)-2,7-diazaspiro[3.5]nonan-7-yl)-1-oxoisoindolin-2-yl)piperidine-2,6-dione]",20 to 200,> 100,> 100
"CCc1c(F)ccc2cc(O)cc(-c3ncc4c(N5CCC[C@@H](O)CC5)nc(OCC5(CN6CCC7(CC6)CC(CN6CCN(c8ccc9c(c8)CN([C@H]8CCC(=O)NC8=O)C9=O)CC6)C7)CC5)nc4c3F)c12 [Compound 116, (S)-3-(5-(4-((7-((1-(((7-(8-ethyl-7-fluoro-3-hydroxynaphthalen-1-yl)-8-fluoro-4-((R)-4-hydroxyazepan-1-yl)pyrido[4,3-d]pyrimidin-2-yl)oxy)methyl)cyclopropyl)methyl)-7-azaspiro[3.5]nonan-2-yl)methyl)piperazin-1-yl)-1-oxoisoindolin-2-yl)piperidine-2,6-dione]",> 200,1 to 10,> 100
"CCc1cccc2cc(O)cc(-c3ncc4c(N5CCC[C@@](C)(O)C5)nc(OCC5(CN6CC7(CCN(c8ccc9c(c8)CN(C8CCC(=O)NC8=O)C9=O)CC7)C6)CC5)nc4c3F)c12 (stereo partly drawn) [Compound 16, 3-(5-(2-((1-(((7-(8-ethyl-3-hydroxynaphthalen-1-yl)-8-fluoro-4-((R)-3-hydroxy-3-methylpiperidin-1-yl)pyrido[4,3-d]pyrimidin-2-yl)oxy)methyl)cyclopropyl)methyl)-2,7-diazaspiro[3.5]nonan-7-yl)-1-oxoisoindolin-2-yl)piperidine-2,6-dione]",20 to 200,> 100,> 100
"CCc1c(F)ccc2cc(O)cc(-c3ncc4c(N5CCC(O)CC5)nc(OCC5(CN6CCC(CN7CCN(c8ccc9c(c8)CN([C@H]8CCC(=O)NC8=O)C9=O)CC7)CC6)CC5)nc4c3F)c12 [Compound 115, (S)-3-(5-(4-((1-((1-(((7-(8-ethyl-7-fluoro-3-hydroxynaphthalen-1-yl)-8-fluoro-4-(4-hydroxypiperidin-1-yl)pyrido[4,3-d]pyrimidin-2-yl)oxy)methyl)cyclopropyl)methyl)piperidin-4-yl)methyl)piperazin-1-yl)-1-oxoisoindolin-2-yl)piperidine-2,6-dione]",> 200,> 100,> 100
"CCc1cccc2cc(O)cc(-c3ncc4c(N5CCC[C@@](C)(O)C5)nc(OCC5(CN6CCC7(CC6)CC(CN6CCN(c8ccc9c(c8)C(=O)N(C8CCC(=O)NC8=O)C9=O)CC6)C7)CC5)nc4c3F)c12 (stereo partly drawn) [Compound 32, 2-(2,6-dioxopiperidin-3-yl)-5-(4-((7-((1-(((7-(8-ethyl-3-hydroxynaphthalen-1-yl)-8-fluoro-4-((R)-3-hydroxy-3-methylpiperidin-1-yl)pyrido[4,3-d]pyrimidin-2-yl)oxy)methyl)cyclopropyl)methyl)-7-azaspiro[3.5]nonan-2-yl)methyl)piperazin-1-yl)isoindoline-1,3-dione]",20 to 200,1 to 10,< 10
"CCc1cccc2cc(O)cc(-c3ncc4c(N5CCC[C@@](C)(O)C5)nc(OCC5(CN6CCC(N7CC8(CCN(c9ccc%10c(c9)CN([C@H]9CCC(=O)NC9=O)C%10=O)CC8)C7)CC6)CC5)nc4c3F)c12 [Compound 30, (S)-3-(5-(2-(1-((1-(((7-(8-ethyl-3-hydroxynaphthalen-1-yl)-8-fluoro-4-((R)-3-hydroxy-3-methylpiperidin-1-yl)pyrido[4,3-d]pyrimidin-2-yl)oxy)methyl)cyclopropyl)methyl)piperidin-4-yl)-2,7-diazaspiro[3.5]nonan-7-yl)-1-oxoisoindolin-2-yl)piperidine-2,6-dione]",< 20,1 to 10,< 10
